Values joined by “and” are separate entries in the source; they are usually repeats but may differ in a detail not shown here. Equal values may be shown once. Bounds are passed on as bounds.

The test system of the assay is PDC tumor spheroids with HUVEC/MSC, viability. The assay can be described thus: Anticancer human tumor 439559-082-T-J2-PDC patient-derived colon adenocarcinoma cell line growth inhibition [TAK]. The following applies: for viability, T/C: stronger effect = lower value. An excerpt: Combinatorial screen of targeted agents with TAK-243 and ipatasertib in multi-cell type tumor spheroids
A high-throughput screen of multi-cell type tumor spheroids was designed to identify active combinations of targeted small molecules and TAK-243 or ipatasertib. Complex spheroids include a stromal component modeled by human endothelial cells (HUVEC) and fibroblasts modeled by human mesenchymal stem cells (MSCs). The concentration ranges selected for each drug and investigational agent were based upon clinically achievable concentrations if the clinical Cmax of the agent was known.
Compounds. The drugs and investigational agents: TAK-243 (785004), ipatasertib (767898), everolimus (733504), selumetinib (741078), bortezomib (756655), trametinib (758246), ixazomib (758254), vemurafenib (761431), dabrafenib (764134), sapanisertib (764658), alpelisib (765974), and copanlisib (816437), were obtained from the National Cancer Institute (NCI) Developmental Therapeutics Program Chemical Repository. The FDA-approved anticancer drug set is available from the NCI Developmental Therapeutics Program. […] The stock solutions were prepared in dimethyl sulfoxide (DMSO, Sigma-Aldrich, St. Louis, MO, cat. D2650) at 800-fold the tested concentration and stored at -70 degrees C prior to their use. All drugs and investigational agents were tested over a range starting from a high concentration at or near the clinical Cmax and decreasing in half-log increments. If the clinical Cmax for an agent had not been determined, the highest concentration tested was 10 microM.
NCI60 Cell Culture. NCI60 cell lines were obtained from the NCI Developmental Therapeutics Program Tumor Repository. For each lot of cells, the Repository performed Applied Biosystems AmpFLSTR Identifiler testing with PCR amplification to confirm consistency with the published Identifier STR profile for each cell line. Cells were kept in continuous culture for no more than 20 passages. The optimal seeding densities for each of the cell lines at each time point assessed were determined prior to performing the concentration response studies. Briefly, the NCI60 human tumor lines were grown as monolayers in RPMI 1640 medium supplemented with 10% FBS and 2 mmol/L L-glutamine.
An additional 2 lines were from the NCI60 cell line panel including melanomas, MALME-3M and SK-MEL-2. Pooled donor human umbilical vein endothelial cells (HUVEC, Lonza, cat. CC-2519) and human mesenchymal stem cells (hMSC, Lonza, cat. PT-2501) were purchased from Lonza (Walkersville, MD).
PDMR cell lines were grown in complete medium (DC medium): Dulbecco's modified Eagle's medium (DMEM)/F12 supplemented with 5% fetal bovine serum (FBS), 2 mM L-glutamine, 100 U/mL penicillin and 100 µg/ml streptomycin, 0.4 µg/ml hydrocortisone, 10 ng/ml epidermal growth factor (EGF) recombinant human protein, 24 µg/mL adenine, and 0.1 mg/mL primocin. During culture from frozen stock vials, PDMR cells were cultured in the same medium containing 10 µM Y-27632 (see Table 3). The PDCs were cultured in complete DMEM/F12 media without 10 microM Y-27632 dihydrochloride for at least two passages prior to the screen. The pooled donor HUVEC and hMSC were cultured in endothelial cell growth medium 2 (PromoCell, Heidelberg, Germany, cat. C-22011) and mesenchymal stem cell growth medium 2 (PromoCell, cat. C-28009), respectively. For all experiments, HUVEC and hMSC were used at passages </=5.
For the pre-screen, cell seeding densities were determined from a titration spanning the range from 5,000 to 313 cells per well. The mct-spheroids including 60% malignant cells, 25% HUVEC and 15% MSC dispensed as a mixture into U-bottom Ultra-Low Attachment 384-well plates (Corning, NY)
High-throughput Drug Combination Screening.
Prior to their inoculation into 384-well plates, malignant cells, HUVEC, and hMSC were removed from T flasks using TrypLE express (Thermo Fisher Scientific, cat. 12605036) and harvested by centrifugation for 5 min at 233 x g. […]

Where [1] appears, read: curve of first compound, second compound 0.3 µM.
[2] abbreviates: curve of first compound, second compound 0.949 µM.
Setting [3] is: curve of first compound, second compound 3 µM.
Where [4] appears, read: curve of first compound, second compound 9.49 µM.
The mark [5] stands for this setting: curve of first compound, second compound 30 µM.
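Note: spheroids exposed to drugs for seven days before readout.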

A word on the viability, T/C: it is the ratio of treated to control. One may read the IC50 as the concentration needed to halve the response being measured. For `CC(C)(C)c1nc(-c2cccc(NS(=O)(=O)c3c(F)cccc3F)c2F)c(-c2ccnc(N)n2)s1`, the viability, T/C was 114% and 120% (compound 0.0316 µM); 109% (compound 0.1 µM); 118% and 108% (compound 0.316 µM); 108% and 104% (compound 1 µM); 120% and 102% (compound 3.16 µM); 101% and 98% (compound 10 µM). For the same compound, where the note is “curve of compound”, the IC50 is over 10 µM.
For the compound `Cc1nc(NC(=O)N2CCCC2C(N)=O)sc1-c1ccnc(C(C)(C)C(F)(F)F)c1` (centres undefined), the viability, T/C (compound 0.0316 µM) was 108% and 109%; the viability, T/C (compound 0.1 µM) is 105% and 106%; the viability, T/C (compound 0.316 µM) is 88.8% and 87%; the viability, T/C (compound 1 µM) is 90.8% and 87.5%; the viability, T/C (compound 3.16 µM) was 90% and 80.8%; the viability, T/C (compound 10 µM) is 82.5% and 78.5%. Moreover, the IC50 (curve of compound) is over 10 µM.
With `CC(C)n1nc(-c2ccc3oc(N)nc3c2)c2c(N)ncnc21` + CC(C)NCC(C(=O)N1CCN(c2ncnc3c2C(C)CC3O)CC1)c1ccc(Cl)cc1, the IC50 is over 0.1 µM under setting [1]; over 0.1 µM under setting [2]; over 0.1 µM under setting [3]; over 0.1 µM under setting [4]; over 0.1 µM under setting [5]. For the same compound, the viability, T/C is 109% (second compound 0.3 µM, first compound 0.000316 µM); 98.8% (second compound 0.3 µM, first compound 0.001 µM); 96.5% (second compound 0.3 µM, first compound 0.00316 µM); 80.4% (second compound 0.3 µM, first compound 0.01 µM); 73.1% (second compound 0.3 µM, first compound 0.0316 µM); 71.2% (second compound 0.3 µM, first compound 0.1 µM). Moreover, the viability, T/C (second compound 0.949 µM, first compound 0.000316 µM) was 106%; the viability, T/C (second compound 0.949 µM, first compound 0.001 µM) is 101%; the viability, T/C (second compound 0.949 µM, first compound 0.00316 µM) was 83%; the viability, T/C (second compound 0.949 µM, first compound 0.01 µM) is 85%; the viability, T/C (second compound 0.949 µM, first compound 0.0316 µM) is 76%; the viability, T/C (second compound 0.949 µM, first compound 0.1 µM) was 68%. For the same compound, the viability, T/C was 101% (second compound 3 µM, first compound 0.000316 µM); 91.8% (second compound 3 µM, first compound 0.001 µM); 80.8% (second compound 3 µM, first compound 0.00316 µM); 82% (second compound 3 µM, first compound 0.01 µM); 73.7% (second compound 3 µM, first compound 0.0316 µM); 71.8% (second compound 3 µM, first compound 0.1 µM). The viability, T/C is 89.5% (second compound 9.49 µM, first compound 0.000316 µM); 94.6% (second compound 9.49 µM, first compound 0.001 µM); 84.1% (second compound 9.49 µM, first compound 0.00316 µM); 78.7% (second compound 9.49 µM, first compound 0.01 µM); 69.9% (second compound 9.49 µM, first compound 0.0316 µM); 66.8% (second compound 9.49 µM, first compound 0.1 µM). Moreover, the viability, T/C was 88.6% (second compound 30 µM, first compound 0.000316 µM); 91.1% (second compound 30 µM, first compound 0.001 µM); 87.8% (second compound 30 µM, first compound 0.00316 µM); 75% (second compound 30 µM, first compound 0.01 µM); 73.3% (second compound 30 µM, first compound 0.0316 µM); 70.3% (second compound 30 µM, first compound 0.1 µM).
For the compound `CCCS(=O)(=O)Nc1ccc(F)c(C(=O)c2c[nH]c3ncc(-c4ccc(Cl)cc4)cc23)c1F` + CC(C)NCC(C(=O)N1CCN(c2ncnc3c2C(C)CC3O)CC1)c1ccc(Cl)cc1, the IC50 is over 100 µM under setting [1]; over 100 µM under setting [2]; over 100 µM under setting [3]; over 100 µM under setting [4]; 24.8 µM under setting [5]. Moreover, the viability, T/C is, setting by setting: (second compound 0.3 µM, first compound 0.316 µM) 117%; (second compound 0.3 µM, first compound 1 µM) 103%; (second compound 0.3 µM, first compound 3.16 µM) 100%; (second compound 0.3 µM, first compound 10 µM) 91.5%; (second compound 0.3 µM, first compound 31.6 µM) 93.4%; (second compound 0.3 µM, first compound 100 µM) 106%. The viability, T/C runs as follows: (second compound 0.949 µM, first compound 0.316 µM) 122%; (second compound 0.949 µM, first compound 1 µM) 99.1%; (second compound 0.949 µM, first compound 3.16 µM) 94.6%; (second compound 0.949 µM, first compound 10 µM) 86.2%; (second compound 0.949 µM, first compound 31.6 µM) 21.8%; (second compound 0.949 µM, first compound 100 µM) 100%. Further, the viability, T/C (second compound 3 µM, first compound 0.316 µM) is 108%; the viability, T/C (second compound 3 µM, first compound 1 µM) is 107%; the viability, T/C (second compound 3 µM, first compound 3.16 µM) was 88.3%; the viability, T/C (second compound 3 µM, first compound 10 µM) was 76%; the viability, T/C (second compound 3 µM, first compound 31.6 µM) was 51.6%; the viability, T/C (second compound 3 µM, first compound 100 µM) is 94.6%. Besides, the viability, T/C (second compound 9.49 µM, first compound 0.316 µM) is 96.6%; the viability, T/C (second compound 9.49 µM, first compound 1 µM) was 101%; the viability, T/C (second compound 9.49 µM, first compound 3.16 µM) is 80.1%; the viability, T/C (second compound 9.49 µM, first compound 10 µM) was 72.5%; the viability, T/C (second compound 9.49 µM, first compound 31.6 µM) was 8.73%; the viability, T/C (second compound 9.49 µM, first compound 100 µM) is 88.5%. Further, the viability, T/C was 87.9% (second compound 30 µM, first compound 0.316 µM); 94.6% (second compound 30 µM, first compound 1 µM); 84.8% (second compound 30 µM, first compound 3.16 µM); 71.7% (second compound 30 µM, first compound 10 µM); 1.55% (second compound 30 µM, first compound 31.6 µM); 86.9% (second compound 30 µM, first compound 100 µM).

For the origin of these results see PubChem BioAssay AID2060356 (Molecular Pharmacology Branch, DTP, NCI, 2025).
